Where “and” joins values, the source holds several entries; their conditions need not be identical. Identical values can stand only once. Like-named read-outs stand apart in the source and are kept apart here.

Assay [1] in a line: Automated ORAC assay, peroxyl radical (AAPH). As to conditions: for ORAC Peroxyl: trolox equivalents, AAPH-generated peroxyl radical, fluorescein probe; for ORAC peroxyl radical: scaled × 10^3. As to the method:
(§1) ORAC was carried out according to the previous method with some modifications. […] The analyzer was programmed to record the fluorescence of fluorescein every 2 min after AAPH, or H2O2-Cu^2+ was added. The fluorescein solution and sample were added to the wells of an illuminated 96-well plate, and 12 µL of each of our samples (in stock solution of 1 mg/mL) was combined with 138 µL of a fluorescein working solution followed by the addition of 50 µL of 150 mg of AAPH prepared in situ in 6 mL phosphate buffer. Absorbance was measured using the Fluoroskan spectrum plate reader with the excitation wavelength set at 485 nm and the emission wavelength at 530 nm. A calibration curve was established using a trolox stock solution of concentrations in the range of 83–417 µM (R^2 = 0.9514). The ORAC values were calculated using a regression equation (Y = a + bX + cX^2) between trolox concentration (Y in µM) and the net area under the fluorescence decay curve (X). ORAC values were expressed as micromoles of trolox equivalents (TEs) per milligram of test sample. Samples without a perfect curve were further diluted and the dilution factors were used for the result calculations of such samples.

Assay [2] deals with Fe2+-induced lipid peroxidation in microsomes from an S9 liver fraction. Put plainly: Inhibition of Fe(II)-induced microsomal lipid peroxidation (TBARS). As to conditions: TBARS at 532 nm, Table 2 head prints no unit, IC50 in µg/mL. The assay is classed as biochemical. As for the experimental part:
A previously described method was used with a few modifications. The reaction mixture contained microsomes (1 mg of protein/mL in 0.01 M potassium phosphate buffer; pH 7.4, supplemented with 1.15% KCl, m/v) isolated from an S9 liver fraction using a sepharose column. The positive control included microsomes, buffer, and ferrous sulphate, in the absence of the samples to be tested.
The sample stock solutions (HR and C-1–C-7) were prepared in methanol (1 mg/mL, w/v). The working sample solutions were prepared in 0.01M potassium phosphate buffer, pH 7.4, supplemented with 1.15% KCl (m/v) diluted to 26.750, 13.375, 6.688, 3.344, 1.672, and 0.836 µg/mL concentrations. A total of 100 µL of each sample (working solutions) was dissolved in potassium phosphate buffer and pre-incubated with 500 µL microsomes at 37 °C for 30 min in a shaking water bath. A total of 200 µL of KCl buffer was added to the mixture, followed by 200 µL of a 2.5 mM ferrous sulphate solution and incubated at 37 °C for 1 h in a shaking water bath. The reaction was terminated with 10% trichloroacetic acid (TCA, m/v) solution (1 mL) containing 125 µL butylated hydroxytoluene (BHT, 0.01%) and 1 mM ethylenediaminetetraacetic acid (EDTA). Samples were centrifuged at 2000 rpm for 15 min; 1 mL of supernatant was mixed with 1 mL of 0.67% thiobarbituric acid (TBA) solution. The reaction mixture was then incubated in a water bath at 90 °C for 20 min and the absorbance was measured at 532 nm using Multiskan plate reader. EGCG, dissolved in methanol, was used as positive control. The percentage inhibition of TBARS formation relative to the positive control was calculated by Acontrol−Asample/Acontrol×100
All skin enzyme inhibitory assays and Fe^2+-induced lipid peroxidation assay calculations, expressed as percentage inhibitions ± SD, were performed using MS Excel 2013, while the final values, expressed as IC50, were determined using GraphPad prism 5.0. The data presented are means ± SD obtained from 96-well plate readers for all in vitro experiments in triplicate. Differences between the means were considered to be significant if p < 0.05 according to Prism’s one-way ANOVA. The ORAC, FRAP, and TEAC values were determined using their respective templates. Correlation coefficients among the methods used for determining total antioxidant assays (FRAP, TEAC, and ORAC), as well as skin enzymes inhibitions (tyrosinase anf elastase), were determined using SPSS version 21. Values at p < 0.05 were considered significant.

The target of a further assay is T1, elastase (Sus scrofa, UniProt P00772).
T1 construct: purchased Sigma-Aldrich CAS No. 39445-21-1 (catalogue number not given); host or cells: porcine pancreas
The assay can be described thus: Elastase inhibition assay. The assay is classed as biochemical, porcine. As for the experimental part:
Inhibition of elastase by the test samples was assayed using N-succ-(Ala)3-nitroanilide (SANA) as the substrate, monitoring the release of p-nitroanilide by the method described with little adjustment. The inhibitory activity determined the intensity of color released during cleavage of SANA by the action of elastase. The working reagent for anti-elastase assay was prepared in line with the literature. […] The sample stock solutions were prepared as 1 mg in 1 mL methanol. […] The mixtures were further incubated for 10 min and the absorbance was measured at 410 nm. […] The sample control involved the sample and SANA (uninhibited sample). The percentage of elastase inhibition was calculated as follows: 1−B/A×100
Elastase inhibition (%), where A is the enzyme activity without sample and B is the activity in the presence of the sample.
The data presented are means ± SD obtained from 96-well plate readers for all in vitro experiments in triplicate. Differences between the means were considered to be significant if p < 0.05 according to Prism’s one-way ANOVA. The ORAC, FRAP, and TEAC values were determined using their respective templates. Correlation coefficients among the methods used for determining total antioxidant assays (FRAP, TEAC, and ORAC), as well as skin enzymes inhibitions (tyrosinase anf elastase), were determined using SPSS version 21. Values at p < 0.05 were considered significant.

The nature of assay [3]: Ferric-ion-reducing antioxidant power (FRAP) assay. Conditions: ascorbic acid equivalents; sample stock 1 mg/mL; read at 593 nm after 30 min. As to the method: Working FRAP reagent was prepared in accordance with the method described previously. In a 96-well clear microplate (visible range), 10 μL of the stock solution (1 mg/mL, w/v) of the isolated compounds (C-1–C-7) and a methanol extract (HR) were mixed each with 300 μL FRAP reagent. The FRAP reagent was a mixture (10:1:1, v/v/v) of acetate buffer (300 mM, pH 3.6), tripyridyl triazine (TPTZ) (10 mM in 40 mM HCl), and FeCl3·6H2O (20 mM). After incubation at room temperature for 30 min, the plate was read at a wavelength of 593 nm on a Multiskan spectrum plate reader. L-Ascorbic acid was used as a standard with concentrations varying between 0 and 1000 μM. Further dilutions were carried out on the samples that were highly concentrated and such dilution factors were recorded and used for the calculations of the affected samples. The results were expressed as μM ascorbic acid equivalents per milligram dry weight (μM AAE/g) of the test samples.

A short description of assay [4]: Trolox equivalent absorbance capacity (TEAC) assay. As to conditions: trolox equivalents; sample stock 1 mg/mL; read at 734 nm after 30 min. As to the method: The total antioxidant activity of the test sample was measured using previously described methods. The stock solutions which contained 7 mM ABTS and 140 mM potassium-peroxodisulphate (K2S2O8) (Merck, Johannesburg, South Africa) were prepared and kept at −2 °C. The working solution was then prepared by adding 88 μL K2S2O8 solution to 5 mL ABTS solution. The two solutions were thoroughly mixed and allowed to react for 24 h at room temperature in the dark. Trolox (6-hydrox-2,5,7,8-tetramethylchroman-2-carboxylic acid) was used as the standard with concentrations ranging between 0 and 500 μM. After 24 h, the ABTS mix solution was diluted with ethanol to read a start-up absorbance (control) of approximately 2.0 (±0.1). The stock solution (1 mg/mL) of a methanol extract (HT) and purified compounds (25 μL) were allowed to react with 300 μL ABTS in the dark at room temperature for 30 min. The absorbance was read at 734 nm at 25 °C on the plate reader. The results were expressed as μM trolox equivalents per milligram dry weight (μM TE/g) of the test samples.

Assay [5] can be described thus: Automated ORAC assay, hydroxyl radical (H2O2-Cu2+). Conditions: trolox equivalents; H2O2-Cu2+-generated hydroxyl radical; fluorescein probe. As to the method:
as §1

Setting [6] is: porcine pancreatic elastase, SANA substrate, 410 nm, Table 3 head prints no unit, threshold 100 µg/mL, read-out: ELA (elastase inhibition).

T1 sequence (P00772 27-266): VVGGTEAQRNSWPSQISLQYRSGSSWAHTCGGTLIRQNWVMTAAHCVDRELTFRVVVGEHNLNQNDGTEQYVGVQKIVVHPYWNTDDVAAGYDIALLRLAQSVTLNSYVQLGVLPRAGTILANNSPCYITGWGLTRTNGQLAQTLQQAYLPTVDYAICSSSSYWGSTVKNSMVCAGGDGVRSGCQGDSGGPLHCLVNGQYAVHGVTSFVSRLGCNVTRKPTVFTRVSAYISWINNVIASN

Turning to `C/C=C(\C)C(=O)Oc1c(O)c(OC)c(O)c2c(=O)c(OC)c(-c3ccccc3)oc12` [Compound C-1, 5,7,8-trihydroxy-3,6-dimethoxyflavone-8-O-2-methyl-2-butanoate], in assay [1], the “ORAC Peroxyl” value turned out to be 3523.51 ± 3.22 µM TE/g. For the same compound, the “LPO (IC50, inhibition of Fe2+-induced lipid peroxidation)” value in assay [2] was 13.123 ± 0.34 µg/mL. Further, the IC50 at elastase (setting [6]) is over 242 µM. In addition, the FRAP in assay [3] is recorded as 1251.45 ± 4.18 µM AAE/g. Also, the TEAC in assay [4] came out at 1131.80 ± 6.41 µM TE/g. The “ORAC Hydroxyl” value in assay [5] is listed as 2.114 ± 4.01 × 10^6 µM TE/g.

Take `COc1c(O)c(OC)c2oc(-c3ccccc3)c(OC)c(=O)c2c1O` [Compound C-2, 5,7-dihydroxy-3,6,8-trimethoxyflavone]: in assay [1], the ORAC peroxyl radical was 2.935 ± 0.13 × 10^3 µMTE/g and the “ORAC Peroxyl” value came out at 2935.47 ± 0.13 µM TE/g. Also, the “LPO (IC50, inhibition of Fe2+-induced lipid peroxidation)” value in assay [2] was 16.421 ± 0.92 µg/mL and 16.42 ± 0.92 µg/mL. For the same compound, at elastase (setting [6]), the IC50 is over 290 µM. In assay [3], the FRAP turned out to be 1402.62 ± 5.77 µM AAE/g. In addition, in assay [4], the TEAC is recorded as 1276.11 ± 1.32 µM TE/g. Also, the “ORAC Hydroxyl” value in assay [5] was 2.413 ± 6.20 × 10^6 µM TE/g.

Consider `COc1c(OC)c(O)c2c(=O)c(OC)c(-c3ccccc3)oc2c1OC` [Compound C-3, 5-hydroxy-3,6,7,8-tetramethoxyflavone], for which, in assay [1], the ORAC peroxyl radical is on record as 2.431 ± 8.63 × 10^3 µMTE/g and the “ORAC Peroxyl” value amounted to 2431.30 ± 8.63 µM TE/g. Further, the “LPO (IC50, inhibition of Fe2+-induced lipid peroxidation)” value in assay [2] was 11.64 ± 1.72 µg/mL. In addition, the IC50 at elastase (setting [6]) was over 279 µM. The FRAP in assay [3] came to 1314.42 ± 2.42 µM AAE/g. In addition, the TEAC in assay [4] was 1378.10 ± 9.06 µM TE/g.

For the compound `COc1cc2oc(-c3ccccc3)c(OC)c(=O)c2c(O)c1OC` [Compound C-4, 5-hydroxy-3,6,7-trimethoxyflavone], in assay [1], the ORAC peroxyl radical is 2.814 ± 5.20 × 10^3 µMTE/g and the “ORAC Peroxyl” value was 2814.51 ± 5.20 µM TE/g. The “LPO (IC50, inhibition of Fe2+-induced lipid peroxidation)” value in assay [2] was 14.90 ± 0.06 µg/mL. The IC50 on elastase (setting [6]) was over 305 µM. Moreover, the FRAP in assay [3] was 1119.44 ± 11.89 µM AAE/g. Also, the TEAC in assay [4] came out at 1207.11 ± 7.21 µM TE/g. For the same compound, the “ORAC Hydroxyl” value in assay [5] was 1.917 ± 3.91 × 10^6 µM TE/g.

As for `C=C1CC23CCC4C(C)(C(=O)O)CCCC4(C)C2CCC1C3` (stereo not drawn) [Compound C-5, ent-kaurenoic acid], the “ORAC Peroxyl” value in assay [1] came out at 364.44 ± 6.71 µM TE/g. In addition, in assay [2], the “LPO (IC50, inhibition of Fe2+-induced lipid peroxidation)” value was over 100 µg/mL. Moreover, the IC50 at elastase (setting [6]) was over 331 µM. Further, the FRAP in assay [3] turned out to be 19.66 ± 8.12 µM AAE/g. The TEAC in assay [4] worked out at 1105.00 ± 3.09 µM TE/g. Also, the “ORAC Hydroxyl” value in assay [5] is recorded as 0.429 ± 12.00 × 10^6 µM TE/g.

In the case of `C=C1C2CCC3C4(C)CCCC(C)(C(=O)O)C4CCC3(C2)C1O` (stereo not drawn) [Compound C-7, 15-α-hydroxy-(-)-ent-kaur-16-en-19-oic acid], the “ORAC Peroxyl” value in assay [1] amounted to 93.10 ± 13.68 µM TE/g. The “LPO (IC50, inhibition of Fe2+-induced lipid peroxidation)” value in assay [2] was over 100 µg/mL. The IC50 at elastase (setting [6]) was over 314 µM. Further, in assay [3], the FRAP turned out to be 60.90 ± 7.90 µM AAE/g. For the same compound, the TEAC in assay [4] turned out to be 1424.51 ± 0.70 µM TE/g. Besides, the “ORAC Hydroxyl” value in assay [5] was 0.845 ± 13.34 × 10^6 µM TE/g.

Regarding `O=C(O[C@@H]1Cc2c(O)cc(O)cc2O[C@@H]1c1cc(O)c(O)c(O)c1)c1cc(O)c(O)c(O)c1` [EGCG, Epigallocatechin gallate, reference compound], the “ORAC Peroxyl” value in assay [1] was determined as 14693.09 ± 5.53 µM TE/g. The “LPO (IC50, inhibition of Fe2+-induced lipid peroxidation)” value in assay [2] was 0.929 ± 4.11 µg/mL. Besides, in assay [3], the FRAP worked out at 3326.45 ± 5.76 µM AAE/g. The TEAC in assay [4] was 11545.44 ± 17.28 µM TE/g. Moreover, the “ORAC Hydroxyl” value in assay [5] is 3.862 ± 4.65 × 10^6 µM TE/g.

Turning to `O=c1cc(CO)occ1O` [KJA, kojic acid, reference compound], at elastase, the IC50 is over 704 µM.
